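Test compounds were applied to cells in 96-well plates for 48 hours at 5 doses. The concentration for full growth arrest is given as TGI.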
Legend:
Test in all cases: growth of human tumour cells (NCI), 48 h
[1] = test system: ACHN renal
[2] = test system: HCT-116 colon
[3] = test system: A498 renal
[4] = test system: CAKI-1 renal
[5] = test system: EKVX NSCLC
[6] = test system: 786-0 renal
[7] = test system: HOP-92 NSCLC
[8] = test system: SK-MEL-2 melanoma
[9] = test system: HCT-15 colon
[10] = test system: OVCAR-5 ovarian
[11] = test system: M14 melanoma
[12] = test system: SK-OV-3 ovarian
[13] = test system: SF-268 CNS
[14] = test system: COLO 205 colon
[15] = test system: UACC-62 melanoma
[16] = test system: HL-60(TB) leukemia
[17] = test system: XF 498 CNS
[18] = test system: DLD-1 colon
[19] = test system: IGROV1 ovarian
[20] = test system: DMS 114 small cell lung
[21] = test system: KM20L2 colon
[22] = test system: SNB-19 CNS
[23] = test system: UACC-257 melanoma
[24] = test system: SK-MEL-28 melanoma
[25] = test system: SNB-78 CNS
[26] = test system: CCRF-CEM leukemia
[27] = test system: OVCAR-3 ovarian
[28] = test system: SF-539 CNS
[29] = test system: NCI-H522 lung
[30] = test system: U251 CNS
[31] = test system: HT29 colon
[32] = test system: MALME-3M melanoma
[33] = test system: M19-MEL melanoma
[34] = test system: SNB-75 CNS
[35] = test system: SN12C renal
[36] = test system: SW-620 colon
[37] = test system: A549 NSCLC
[38] = test system: HOP-18 NSCLC
[39] = test system: RPMI-8226 leukemia
[40] = test system: RXF 393 renal
[41] = test system: TK-10 renal
[42] = test system: HOP-62 NSCLC
[43] = test system: KM12 colon
[44] = test system: LXFL 529 NSCLC
[45] = test system: LOX IMVI melanoma
[46] = test system: SF-295 CNS
[47] = test system: NCI-H460 lung
[48] = test system: OVCAR-8 ovarian
[49] = test system: NCI-H23 lung
[50] = test system: UO-31 renal
[51] = test system: K-562 leukemia
[52] = test system: DMS 273 small cell lung
[53] = test system: SK-MEL-5 melanoma
[54] = test system: MOLT-4 leukemia
[55] = test system: NCI-H226 lung
[56] = test system: HCC-2998 colon
[57] = test system: SR leukemia
[58] = test system: OVCAR-4 ovarian
[59] = test system: BT-549 breast
[60] = test system: T-47D breast
[61] = test system: DU-145 prostate
[62] = test system: MDA-N
[63] = test system: PC-3 prostate
[64] = test system: HS 578T breast
[65] = test system: NCI/ADR-RES ovarian
[66] = test system: MDA-MB-231 breast
[67] = test system: MCF7 breast
[68] = test system: MDA-MB-435

Cc1ccccc1N1C(=O)C2C=CC(n3[nH]c(=O)n(Cc4ccccc4)c3=O)CC2C1=O (stereo not given)
TGI [1]: > 100 µM | TGI [2]: > 100 µM | TGI [3]: > 100 µM | TGI [4]: > 100 µM | TGI [5]: > 100 µM | TGI [6]: > 100 µM | TGI [7]: > 100 µM | TGI [8]: > 100 µM | TGI [9]: > 100 µM | TGI [10]: > 100 µM | TGI [11]: > 100 µM | TGI [12]: > 100 µM | TGI [13]: > 100 µM | TGI [14]: > 100 µM | TGI [15]: > 100 µM | TGI [16]: > 100 µM | TGI [17]: > 100 µM | TGI [18]: > 100 µM | TGI [19]: > 100 µM | TGI [20]: > 100 µM | TGI [21]: > 100 µM | TGI [22]: > 100 µM | TGI [23]: > 100 µM | TGI [24]: > 100 µM | TGI [25]: > 100 µM | TGI [26]: > 100 µM | TGI [27]: > 100 µM | TGI [28]: > 100 µM | TGI [29]: > 100 µM | TGI [30]: > 100 µM | TGI [31]: > 100 µM | TGI [32]: > 100 µM | TGI [33]: > 100 µM | TGI [34]: > 100 µM | TGI [35]: > 100 µM | TGI [36]: > 100 µM | TGI [37]: > 100 µM | TGI [38]: > 100 µM | TGI [39]: > 100 µM | TGI [40]: > 100 µM | TGI [41]: > 100 µM | TGI [42]: > 100 µM | TGI [43]: > 100 µM | TGI [44]: > 100 µM | TGI [45]: > 100 µM | TGI [46]: > 100 µM | TGI [47]: > 100 µM | TGI [48]: > 100 µM | TGI [49]: > 100 µM | TGI [50]: > 100 µM | TGI [51]: > 100 µM | TGI [52]: > 100 µM | TGI [53]: > 100 µM | TGI [54]: > 100 µM | TGI [55]: > 100 µM | TGI [56]: > 100 µM

CCCNC(=S)NNC(=O)CSc1nc(-c2ccccc2)c(-c2ccccc2)[nH]1
TGI [1]: > 100 µM | TGI [2]: > 100 µM | TGI [3]: > 100 µM | TGI [4]: 94.6 µM | TGI [5]: 89.7 µM | TGI [6]: > 100 µM | TGI [7]: 97.8 µM | TGI [8]: > 100 µM | TGI [9]: > 100 µM | TGI [10]: > 100 µM | TGI [11]: 89.6 µM | TGI [12]: > 100 µM | TGI [13]: > 100 µM | TGI [14]: > 100 µM | TGI [15]: > 100 µM | TGI [16]: > 100 µM | TGI [17]: > 100 µM | TGI [18]: > 100 µM | TGI [19]: > 100 µM | TGI [20]: > 100 µM | TGI [21]: > 100 µM | TGI [22]: > 100 µM | TGI [23]: > 100 µM | TGI [24]: > 100 µM | TGI [25]: > 100 µM | TGI [26]: > 100 µM | TGI [27]: 79.7 µM | TGI [28]: > 100 µM | TGI [29]: 78.1 µM | TGI [30]: > 100 µM | TGI [31]: > 100 µM | TGI [32]: 95.4 µM | TGI [33]: > 100 µM | TGI [34]: > 100 µM | TGI [35]: > 100 µM | TGI [36]: > 100 µM | TGI [37]: > 100 µM | TGI [39]: > 100 µM | TGI [41]: > 100 µM | TGI [42]: > 100 µM | TGI [43]: > 100 µM | TGI [44]: > 100 µM | TGI [45]: > 100 µM | TGI [46]: > 100 µM | TGI [47]: > 100 µM | TGI [48]: > 100 µM | TGI [49]: > 100 µM | TGI [50]: > 100 µM | TGI [57]: 93.4 µM | TGI [52]: > 100 µM | TGI [53]: 62.1 µM | TGI [54]: 61.7 µM | TGI [55]: > 100 µM | TGI [58]: > 100 µM

COc1cc2c(c(OC)c1OC)-c1ccc(SC)c(=O)cc1C(NC=O)CC2 (stereo not given)
TGI [1]: > 100 µM | TGI [3]: 1.76 µM | TGI [4]: > 83 µM | TGI [5]: > 85.2 µM | TGI [6]: > 100 µM | TGI [7]: > 100 µM | TGI [8]: > 94.7 µM | TGI [9]: > 37.4 µM | TGI [10]: > 94.3 µM | TGI [59]: > 100 µM | TGI [11]: > 21.5 µM | TGI [12]: 63.9 µM | TGI [60]: > 100 µM | TGI [13]: > 100 µM | TGI [14]: < 0.01 µM | TGI [15]: > 100 µM | TGI [16]: 0.0492 µM | TGI [17]: > 100 µM | TGI [18]: > 100 µM | TGI [19]: > 85.5 µM | TGI [20]: < 0.01 µM | TGI [21]: < 0.01 µM | TGI [22]: > 100 µM | TGI [23]: > 84.8 µM | TGI [24]: > 100 µM | TGI [25]: > 100 µM | TGI [26]: > 74.8 µM | TGI [27]: 2.33 µM | TGI [28]: < 0.0464 µM | TGI [61]: < 0.01 µM | TGI [29]: < 0.01 µM | TGI [30]: 5.68 µM | TGI [62]: < 0.01 µM | TGI [31]: 1.1 µM | TGI [32]: > 83 µM | TGI [33]: > 100 µM | TGI [34]: > 21.5 µM | TGI [35]: > 89.5 µM | TGI [36]: > 100 µM | TGI [37]: > 83.4 µM | TGI [38]: > 100 µM | TGI [39]: 47.1 µM | TGI [40]: > 67.9 µM | TGI [41]: > 100 µM | TGI [42]: > 90.8 µM | TGI [43]: < 0.0138 µM | TGI [63]: > 100 µM | TGI [45]: > 41.1 µM | TGI [64]: > 75.5 µM | TGI [46]: 0.123 µM | TGI [65]: 0.273 µM | TGI [48]: > 68.5 µM | TGI [49]: 50 µM | TGI [50]: > 100 µM | TGI [51]: > 77.2 µM | TGI [57]: 36.6 µM | TGI [66]: > 4.64 µM | TGI [52]: > 100 µM | TGI [53]: < 0.01 µM | TGI [54]: 48.9 µM | TGI [55]: 0.754 µM | TGI [67]: 42 µM | TGI [68]: < 0.01 µM | TGI [58]: > 100 µM | TGI [56]: > 100 µM

Source: PubChem BioAssay (NCI)
